Experimental data published in patent publication US20080108611A1, “SUBSTITUTED THIENOPYRIMIDINE KINASE INHIBITORS” (priority 2006, published 2008).
pIC50: −log10 of the molar value.

The compounds below were run against T1, EGFR (Homo sapiens, UniProt P00533) (assay: EGFR Kinase Assay). Settings: GST-EGFR intracellular portion, 5 μM ATP.
T1 construct: The intracellular portion of EGFR started at nucleotide 2189 (corresponding to amino acid 667) and ended at the termination codon; made in house; host or cells: Sf9 insect cells (baculovirus)
T1 sequence (P00533 669-1210 limits assumed): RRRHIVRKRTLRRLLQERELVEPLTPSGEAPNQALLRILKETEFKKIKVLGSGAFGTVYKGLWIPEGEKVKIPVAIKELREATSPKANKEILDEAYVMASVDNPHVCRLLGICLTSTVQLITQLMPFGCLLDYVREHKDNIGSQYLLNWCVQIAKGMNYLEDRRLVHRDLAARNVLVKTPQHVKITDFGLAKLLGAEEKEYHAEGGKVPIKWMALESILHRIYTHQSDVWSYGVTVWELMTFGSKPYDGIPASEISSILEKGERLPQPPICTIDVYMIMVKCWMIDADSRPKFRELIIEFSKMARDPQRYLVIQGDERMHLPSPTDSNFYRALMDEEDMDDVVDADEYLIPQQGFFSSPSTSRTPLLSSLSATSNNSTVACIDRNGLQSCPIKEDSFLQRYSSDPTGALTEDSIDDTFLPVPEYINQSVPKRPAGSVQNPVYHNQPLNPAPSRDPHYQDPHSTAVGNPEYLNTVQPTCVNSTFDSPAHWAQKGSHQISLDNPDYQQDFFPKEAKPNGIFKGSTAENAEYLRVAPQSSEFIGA
Type: biochemical
Description: The EGFR kinase used was a fusion of Glutathione-S-Transferase (GST) and a PCR amplified intracellular portion of EGFR (NM_005228). The intracellular portion of EGFR started at nucleotide 2189 (corresponding to amino acid 667) and ended at the termination codon. The portion was PCR amplified with primers that added the lambda attB sequences to each end, recombined into an entry vector, then into a GST destination vector (as described in Gateway Technologies Manual by Invitrogen Corporation, Carlsbad, Calif.).
The destination vector was recombined in the DH10BAC strain of bacteria to produce a bacmid. The bacmid was transfected into Sf 9 cells and the supernatant containing the baculovirus was collected. The GSTEGFR protein was purified using large cultures of Sf 9 cells infected with stock virus. After an appropriate period of time, the cells were collected and lysed. The GSTEGFR was then purified from the lysate on Glutathione-Sepharose columns (as described by Amersham Biosciences, Buckinghamshire, United Kingdom).
The EGFR substrate was prepared by biotinylating polyGluTyr (128 mg) (Sigma, St. Louis, Mo.) in a 1×PBS buffer incubated together with a 12-fold molar excess of Sulfo-NHS-LC-Biotin on ice for at least 2 hrs. The free biotin was separated from the biotinylated polyGluTyr on a gel filtration column.
A mixture of a 10× kinase buffer (500 mM Tris at pH 8.0, 100 mM Magnesium Chloride and 1 mM Sodium Vanadate), DTT (1 mM final from 500 mM stock), ATP (5 μM final from 10 mM stock), biotinylated polyGluTyr (10 μg/μL stock), γ-^33P ATP (10 μCi/μL stock) and water was added to each well (90 μL/well) of a Streptavidin Flashplate (Perkin Elmer, Wellesley, M A).
Test compound in 100% DMSO (2 μL) was added to the appropriate wells. Diluted GSTEGFR (1:300 dilution in 50 mM Tris at pH 8.0 and 0.1% bovine serum albumin) (10 μL) was added to the wells to initiate the reactions.
The plates were incubated at 30° C. for 1 hr with shaking. The reacted contents were removed and the plates were sequentially washed three times with a 1×PBS stop buffer (300 μL without Magnesium and Calcium) and 100 mM EDTA. After the final wash, the same stop buffer (200 μL) was added to the wells. The plates were then sealed and read on the TopCount scintillation counter.
Test compounds were assayed in triplicate at 16 concentrations at half-log dilutions starting at 200 uM. A maximum and minimum signal for the assay was determined on each plate. The percent inhibition of a test compound was calculated according to the formula
For a series of test concentrations, the IC50 was derived by graphing percent inhibition against the log of the concentrations tested for a given compound. For those compounds without an IC50, the percent inhibition results are shown at a test concentration of 2 μM.
In the case of `Nc1c(C(=O)NCCN2CCOCC2)sc2ncnc(Nc3ccc(F)c(Cl)c3)c12` [Cpd 4, 5-amino-4-(3-chloro-4-fluoro-phenylamino)-thieno[2,3-d]pyrimidine-6-carboxylic acid (2-morpholin-4-yl-ethyl)-amide], the pIC50 was 9.22. `CN1CCN(Cc2ccc(NC(=O)c3sc4ncnc(Nc5ccc(F)c(Cl)c5)c4c3N)cc2)CC1` [Cpd 18, 5-amino-4-(3-chloro-4-fluoro-phenylamino)-thieno[2,3-d]pyrimidine-6-carboxylic acid [4-(4-methyl-piperazin-1-ylmethyl)-phenyl]-amide] showed a pIC50 of 10.17. `Nc1c(C(=O)Nc2ccc(OC(F)(F)F)cc2)sc2ncnc(Nc3ccc(F)c(Cl)c3)c12` [Cpd 7, 5-amino-4-(3-chloro-4-fluoro-phenylamino)-thieno[2,3-d]pyrimidine-6-carboxylic acid (4-trifluoromethoxy-phenyl)-amide] showed a pIC50 of 9.22. `Nc1c(C(=O)Nc2ccc(CN3CCCCC3)cc2)sc2ncnc(Nc3ccc(F)c(Cl)c3)c12` [Cpd 13, 5-amino-4-(3-chloro-4-fluoro-phenylamino)-thieno[2,3-d]pyrimidine-6-carboxylic acid (4-piperidin-1-ylmethyl-phenyl)-amide] was tested, and the pIC50 was 10.28. Compound `Nc1c(C(=O)Nc2ccc(N3CCOCC3)cc2)sc2ncnc(Nc3ccc(F)c(Cl)c3)c12` [Cpd 10, 5-amino-4-(3-chloro-4-fluoro-phenylamino)-thieno[2,3-d]pyrimidine-6-carboxylic acid (4-morpholin-4-yl-phenyl)-amide] has a pIC50 of 9.71. In the case of `CN(C)Cc1ccc(NC(=O)c2sc3ncnc(Nc4ccc(F)c(Cl)c4)c3c2N)cc1` [Cpd 14, 5-amino-4-(3-chloro-4-fluoro-phenylamino)-thieno[2,3-d]pyrimidine-6-carboxylic acid (4-dimethylaminomethyl-phenyl)-amide], the pIC50 was 10.47. In the case of `COc1ccc(NC(=O)c2sc3ncnc(Nc4ccc(F)c(Cl)c4)c3c2N)cc1OC` [Cpd 3, 5-amino-4-(3-chloro-4-fluoro-phenylamino)-thieno[2,3-d]pyrimidine-6-carboxylic acid (3,4-dimethoxy-phenyl)-amide], the pIC50 was 9.96. `COc1ccc(CNC(=O)c2sc3ncnc(Nc4ccc(F)c(Cl)c4)c3c2N)cc1OC` [Cpd 11, 5-amino-4-(3-chloro-4-fluoro-phenylamino)-thieno[2,3-d]pyrimidine-6-carboxylic acid 3,4-dimethoxy-benzylamide] was tested, and the pIC50 was 9.75. `CN(C)CCCNS(=O)(=O)c1ccc(NC(=O)c2sc3ncnc(Nc4ccc(F)c(Cl)c4)c3c2N)cc1` [Cpd 5, 5-amino-4-(3-chloro-4-fluoro-phenylamino)-thieno[2,3-d]pyrimidine-6-carboxylic acid [4-(3-dimethylamino-propylsulfamoyl)-phenyl]-amide] showed a pIC50 of 10.37. `CC(C)Oc1ccc(NC(=O)c2sc3ncnc(Nc4ccc(F)c(Cl)c4)c3c2N)cc1` [Cpd 8, 5-amino-4-(3-chloro-4-fluoro-phenylamino)-thieno[2,3-d]pyrimidine-6-carboxylic acid (4-isopropoxy-phenyl)-amide] was tested, and the pIC50 was 9.85. For `COc1ccc(NC(=O)c2sc3ncnc(Nc4ccc(F)c(Cl)c4)c3c2N)cn1` [Cpd 9, 5-amino-4-(3-chloro-4-fluoro-phenylamino)-thieno[2,3-d]pyrimidine-6-carboxylic acid (6-methoxy-pyridin-3-yl)-amide], the pIC50 was 9.83. Compound `CN(Cc1ccc(NC(=O)c2sc3ncnc(Nc4ccc(F)c(Cl)c4)c3c2N)cc1)C[C@H]1CCCO1` [Cpd 16, 5-amino-4-(3-chloro-4-fluoro-phenylamino)-thieno[2,3-d]pyrimidine-6-carboxylic acid [4-({methyl-[(2R)-tetrahydro-furan-2-ylmethyl]-amino}-methyl)-phenyl]-amide] has a pIC50 of 10.46. With `COc1ccc(NC(=O)c2sc3ncnc(Nc4ccc(F)c(Cl)c4)c3c2N)cc1` [Cpd 1, 5-amino-4-(3-chloro-4-fluoro-phenylamino)-thieno[2,3-d]pyrimidine-6-carboxylic acid (4-methoxy-phenyl)-amide] the pIC50 was 9.62. Work on `COc1ccc(CCNC(=O)c2sc3ncnc(Nc4ccc(F)c(Cl)c4)c3c2N)cc1OC` [Cpd 12, 5-amino-4-(3-chloro-4-fluoro-phenylamino)-thieno[2,3-d]pyrimidine-6-carboxylic acid [2-(3,4-dimethoxy-phenyl)-ethyl]-amide] yielded a pIC50 of 9.66. `CN(CCc1ccc(NC(=O)c2sc3ncnc(Nc4ccc(F)c(Cl)c4)c3c2N)cc1)C1CCOCC1` [Cpd 15, 5-amino-4-(3-chloro-4-fluoro-phenylamino)-thieno[2,3-d]pyrimidine-6-carboxylic acid (4-{2-[methyl-(tetrahydro-pyran-4-yl)-amino]-ethyl}-phenyl)-amide] gave a pIC50 of 10.19. Work on `CN(Cc1ccc(NC(=O)c2sc3ncnc(Nc4ccc(F)c(Cl)c4)c3c2N)cc1)C[C@@H]1CCCO1` [Cpd 17, 5-amino-4-(3-chloro-4-fluoro-phenylamino)-thieno[2,3-d]pyrimidine-6-carboxylic acid [4-({methyl-[(2S)-tetrahydro-furan-2-ylmethyl]-amino}-methyl)-phenyl]-amide] yielded a pIC50 of 10.21. For `Nc1c(C(=O)Nc2ccc(CN3CCOCC3)cc2)sc2ncnc(Nc3ccc(F)c(Cl)c3)c12` [Cpd 2, 5-amino-4-(3-chloro-4-fluoro-phenylamino)-thieno[2,3-d]pyrimidine-6-carboxylic acid (4-morpholin-4-ylmethyl-phenyl)-amide], the pIC50 was 10.07. With `Nc1c(C(=O)Nc2ccc(Oc3ccccc3)cc2)sc2ncnc(Nc3ccc(F)c(Cl)c3)c12` [Cpd 6, 5-amino-4-(3-chloro-4-fluoro-phenylamino)-thieno[2,3-d]pyrimidine-6-carboxylic acid (4-phenoxy-phenyl)-amide] the pIC50 was 9.13.
